pIC50: −log10 of the molar value. Calls of active or inactive are those of the source. The rule behind the calls is not given here.
Experiments:
HCT-116 [1] = experiment: Antiproliferative activity against human HCT-116 cells assessed as cell viability at 1 uM incubated for 72 hrs by luminescence assay; format: functional, cell-based; details: HCT-116, 72 h
MCF7 = experiment: Antiproliferative activity against human MCF7 cells assessed as growth inhibition incubated for 72 hrs by luminescence assay; format: functional
[2] = Metabolic stability in dog plasma assessed as half life at 100 uM measured upto 120 mins by LC-MS/MS analysis; format: ADME, cell-free, Canis lupus familiaris
[3] = AUC (0 to t) in Sprague-Dawley rat at 1 mg/kg, iv measured up to 24 hrs by LC-MS/MS analysis; format: ADME, organism-based; set-up: route intravenous, dose 1 mg/kg, time <=24; details: in vivo
Histone deacetylase 11 = Histone deacetylase 11 (Homo sapiens, UniProt Q96DB2); experiment: Inhibition of HDAC11 (unknown origin) using Boc-Lys(TFA)-AMC as fluorogenic substrate incubated for 30 mins by fluorescence based assay
Sequence of Histone deacetylase 11 (Q96DB2 whole entry): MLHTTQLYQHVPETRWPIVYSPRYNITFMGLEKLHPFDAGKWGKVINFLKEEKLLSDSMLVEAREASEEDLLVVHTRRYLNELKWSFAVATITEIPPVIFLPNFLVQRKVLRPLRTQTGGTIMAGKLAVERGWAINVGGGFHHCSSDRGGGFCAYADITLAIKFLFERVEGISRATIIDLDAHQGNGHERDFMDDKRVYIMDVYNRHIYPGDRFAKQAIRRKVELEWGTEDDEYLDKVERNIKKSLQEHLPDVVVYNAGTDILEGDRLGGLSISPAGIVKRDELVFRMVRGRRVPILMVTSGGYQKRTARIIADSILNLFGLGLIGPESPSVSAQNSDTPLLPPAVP

M14 = experiment: Antiproliferative activity against human M14 cells assessed as growth inhibition incubated for 72 hrs by luminescence assay; format: functional
HOP-62 = experiment: Antiproliferative activity against human HOP-62 cells assessed as growth inhibition incubated for 72 hrs by luminescence assay; format: functional
OVCAR-5 = experiment: Antiproliferative activity against human OVCAR-5 cells assessed as growth inhibition incubated for 72 hrs by luminescence assay; format: functional
[4] = Cmax in Sprague-Dawley rat at 1 mg/kg, iv measured up to 24 hrs by LC-MS/MS analysis; format: ADME, organism-based; set-up: route intravenous, dose 1 mg/kg, time <=24; details: in vivo
[5] = Metabolic stability in monkey liver microsomes assessed as intrinsic clearance incubated for 10 mins by LC-MS/MS analysis; format: ADME, Macaca mulatta, Microsome; details: rhesus monkey, read-out: CLH
UACC-62 = experiment: Antiproliferative activity against human UACC-62 cells assessed as growth inhibition incubated for 72 hrs by luminescence assay; format: functional
BT-549 = experiment: Antiproliferative activity against human BT-549 cells assessed as growth inhibition incubated for 72 hrs by luminescence assay; format: functional
MDA-MB-231 = experiment: Antiproliferative activity against human MDA-MB-231 cells assessed as growth inhibition incubated for 72 hrs by luminescence assay; format: functional
[6] = Metabolic stability in human plasma assessed as half life at 100 uM measured upto 120 mins by LC-MS/MS analysis; format: ADME, cell-free
SNB-75 = experiment: Antiproliferative activity against human SNB-75 cells assessed as growth inhibition incubated for 72 hrs by luminescence assay; format: functional
SF-268 = experiment: Antiproliferative activity against human SF-268 cells assessed as growth inhibition incubated for 72 hrs by luminescence assay; format: functional
[7] = Metabolic stability in human plasma assessed as parent compound remaining at 100 uM measured after 2 hrs by LC-MS/MS analysis; format: ADME, cell-free; details: read-out: Stability
OVCAR-8 = experiment: Antiproliferative activity against human OVCAR-8 cells assessed as growth inhibition incubated for 72 hrs by luminescence assay; format: functional
[8] = Metabolic stability in dog liver microsomes assessed as half life incubated for 10 mins by LC-MS/MS analysis; format: ADME, Canis lupus familiaris, Microsome
HCC 2998 = experiment: Antiproliferative activity against human HCC 2998 cells assessed as growth inhibition incubated for 72 hrs by luminescence assay; format: functional
[9] = Cmax in Sprague-Dawley rat at 10 mg/kg, po measured up to 24 hrs by LC-MS/MS analysis; format: ADME, organism-based; set-up: route oral, dose 10 mg/kg, time <=24; details: in vivo
HCT-116 [10] = experiment: Effect on SNAI1 protein expression in human HCT-116 cells at 75 nM measured after 24 hrs by western blot analysis; format: functional, cell-based
[11] = Metabolic stability in rat liver microsomes assessed as half life incubated for 10 mins by LC-MS/MS analysis; format: ADME, Microsome
Histone deacetylase 4 = Histone deacetylase 4 (Homo sapiens, UniProt P56524); experiment: Inhibition of HDAC4 (unknown origin) using Boc-Lys(TFA)-AMC as fluorogenic substrate incubated for 30 mins by fluorescence based assay
Sequence of Histone deacetylase 4 (P56524 whole entry): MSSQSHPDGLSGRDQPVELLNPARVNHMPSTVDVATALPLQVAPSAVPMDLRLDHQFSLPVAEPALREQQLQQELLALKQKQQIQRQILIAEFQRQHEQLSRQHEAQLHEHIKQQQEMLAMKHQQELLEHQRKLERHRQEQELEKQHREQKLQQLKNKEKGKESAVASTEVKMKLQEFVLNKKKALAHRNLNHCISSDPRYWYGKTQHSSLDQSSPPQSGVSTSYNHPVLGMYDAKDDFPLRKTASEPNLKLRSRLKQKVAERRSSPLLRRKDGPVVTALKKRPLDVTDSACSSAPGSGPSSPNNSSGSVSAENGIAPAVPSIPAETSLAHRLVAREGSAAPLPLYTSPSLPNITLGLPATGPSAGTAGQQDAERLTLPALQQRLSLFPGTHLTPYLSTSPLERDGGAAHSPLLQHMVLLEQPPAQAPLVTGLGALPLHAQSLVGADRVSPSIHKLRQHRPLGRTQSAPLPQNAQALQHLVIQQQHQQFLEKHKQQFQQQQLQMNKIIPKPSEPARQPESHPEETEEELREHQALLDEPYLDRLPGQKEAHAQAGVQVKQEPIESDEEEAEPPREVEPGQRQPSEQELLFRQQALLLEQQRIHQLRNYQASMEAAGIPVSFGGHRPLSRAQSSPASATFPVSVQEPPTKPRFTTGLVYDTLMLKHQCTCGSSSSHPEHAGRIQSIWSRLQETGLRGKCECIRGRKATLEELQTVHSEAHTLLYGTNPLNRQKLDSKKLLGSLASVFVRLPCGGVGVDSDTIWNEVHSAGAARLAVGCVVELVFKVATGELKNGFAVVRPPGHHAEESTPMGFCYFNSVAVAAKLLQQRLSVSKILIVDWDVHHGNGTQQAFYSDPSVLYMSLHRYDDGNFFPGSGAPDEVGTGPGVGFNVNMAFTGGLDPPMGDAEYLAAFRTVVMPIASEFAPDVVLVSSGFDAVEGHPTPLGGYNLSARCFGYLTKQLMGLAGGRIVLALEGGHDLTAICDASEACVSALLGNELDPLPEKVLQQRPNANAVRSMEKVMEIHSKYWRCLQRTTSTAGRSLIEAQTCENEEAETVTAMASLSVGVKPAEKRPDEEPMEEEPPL

PC-3 = experiment: Antiproliferative activity against human PC-3 cells assessed as growth inhibition incubated for 72 hrs by luminescence assay; format: functional
Hs-578T = experiment: Antiproliferative activity against human Hs-578T cells assessed as growth inhibition incubated for 72 hrs by luminescence assay; format: functional
SK-OV-3 = experiment: Antiproliferative activity against human SK-OV-3 cells assessed as growth inhibition incubated for 72 hrs by luminescence assay; format: functional
NCI-H522 = experiment: Antiproliferative activity against human NCI-H522 cells assessed as growth inhibition incubated for 72 hrs by luminescence assay; format: functional
[12] = Tmax in Sprague-Dawley rat at 10 mg/kg, po measured up to 24 hrs by LC-MS/MS analysis; format: ADME, organism-based; details: in vivo
NCI-H23 = experiment: Antiproliferative activity against human NCI-H23 cells assessed as growth inhibition incubated for 72 hrs by luminescence assay; format: functional
[13] = Metabolic stability in human liver microsomes assessed as half life incubated for 10 mins by LC-MS/MS analysis; format: ADME, Microsome
[14] = Metabolic stability in rat liver microsomes assessed as intrinsic clearance incubated for 10 mins by LC-MS/MS analysis; format: ADME, Microsome; details: read-out: CLH
HT-29 = experiment: Antiproliferative activity against human HT-29 cells assessed as growth inhibition incubated for 72 hrs by luminescence assay; format: functional
[15] = Metabolic stability in rat plasma assessed as parent compound remaining at 100 uM measured after 2 hrs by LC-MS/MS analysis; format: ADME, cell-free; details: read-out: Stability
T47D = experiment: Antiproliferative activity against human T47D cells assessed as growth inhibition incubated for 72 hrs by luminescence assay; format: functional
K562 = experiment: Antiproliferative activity against human K562 cells assessed as growth inhibition incubated for 72 hrs by luminescence assay; format: functional
HOP-92 = experiment: Antiproliferative activity against human HOP-92 cells assessed as growth inhibition incubated for 72 hrs by luminescence assay; format: functional
[16] = Metabolic stability in dog plasma assessed as parent compound remaining at 100 uM measured after 2 hrs by LC-MS/MS analysis; format: ADME, cell-free, Canis lupus familiaris; details: read-out: Stability
RPMI-8226 = experiment: Antiproliferative activity against human RPMI-8226 cells assessed as growth inhibition incubated for 72 hrs by luminescence assay; format: functional
SK-MEL-28 = experiment: Antiproliferative activity against human SK-MEL-28 cells assessed as growth inhibition incubated for 72 hrs by luminescence assay; format: functional
Histone deacetylase 8 = Histone deacetylase 8 (Homo sapiens, UniProt Q9BY41); experiment: Inhibition of HDAC8 (unknown origin) using p53 (379 to 382 residues) (RHKK(Ac-AMC) as fluorogenic substrate incubated for 2 hrs by fluorescence based assay
Sequence of Histone deacetylase 8 (Q9BY41 whole entry, the tested form may be a part): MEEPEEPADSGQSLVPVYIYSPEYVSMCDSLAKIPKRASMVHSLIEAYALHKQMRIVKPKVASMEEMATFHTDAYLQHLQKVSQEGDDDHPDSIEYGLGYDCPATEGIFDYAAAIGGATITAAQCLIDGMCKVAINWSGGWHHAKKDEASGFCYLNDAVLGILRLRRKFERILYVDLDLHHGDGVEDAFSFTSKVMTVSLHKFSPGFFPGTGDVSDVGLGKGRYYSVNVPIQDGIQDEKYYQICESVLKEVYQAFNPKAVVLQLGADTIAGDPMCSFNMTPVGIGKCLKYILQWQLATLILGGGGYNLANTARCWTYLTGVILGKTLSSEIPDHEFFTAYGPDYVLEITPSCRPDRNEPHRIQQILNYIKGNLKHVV

U-251 = experiment: Antiproliferative activity against human U-251 cells assessed as growth inhibition incubated for 72 hrs by luminescence assay; format: functional
786-0 = experiment: Antiproliferative activity against human 786-0 cells assessed as growth inhibition incubated for 72 hrs by luminescence assay; format: functional
NCI-H322M = experiment: Antiproliferative activity against human NCI-H322M cells assessed as growth inhibition incubated for 72 hrs by luminescence assay; format: functional
A498 = experiment: Antiproliferative activity against human A498 cells assessed as growth inhibition incubated for 72 hrs by luminescence assay; format: functional
OVCAR-3 = experiment: Antiproliferative activity against human OVCAR-3 cells assessed as growth inhibition incubated for 72 hrs by luminescence assay; format: functional
MDA-MB-468 = experiment: Antiproliferative activity against human MDA-MB-468 cells assessed as growth inhibition incubated for 72 hrs by luminescence assay; format: functional

SMILES: Cc1cc(Nc2nc(SCc3ccc(C(=O)Nc4ccc(F)cc4N)cc3)nn3cccc23)n[nH]1
- pIC50 (HCT-116 [1]): 7.12
- GI50 (MCF7): 51.8 nM
- half-life at 100 µM [2]: 7.15 h
- AUCt [3]: 715 ng·h/mL
- pIC50 (Histone deacetylase 11): < 5.00
- GI50 (M14): 289 nM
- GI50 (HOP-62): 556 nM
- GI50 (OVCAR-5): 657 nM
- Cmax [4]: 144 ng/mL
- microsomal CLint [5]: 50.3 µL/min/mg
- GI50 (UACC-62): 347 nM
- GI50 (BT-549): 296 nM
- GI50 (MDA-MB-231): 854 nM
- half-life at 100 µM [6]: 5.62 h
- GI50 (SNB-75): 198 nM
- GI50 (SF-268): 1120 nM
- remaining at 2 h, 100 µM [7]: 79.1%
- GI50 (OVCAR-8): 483 nM
- half-life [8]: 0.868 h
- GI50 (HCC 2998): 677 nM
- Cmax [9]: 6.61 ng/mL
- Activity (HCT-116 [10]): Active
- half-life [11]: 0.21 h
- pIC50 (Histone deacetylase 4): < 5.00
- GI50 (PC-3): 355 nM
- GI50 (Hs-578T): 429 nM
- GI50 (SK-OV-3): 339 nM
- GI50 (NCI-H522): 48.8 nM
- Tmax [12]: 4 h
- GI50 (NCI-H23): 603 nM
- half-life [13]: 1.1 h
- microsomal CLint [14]: 110 µL/min/mg
- GI50 (HT-29): 322 nM
- remaining at 2 h, 100 µM [15]: 105%
- GI50 (T47D): 1120 nM
- GI50 (K562): 48.7 nM
- GI50 (HOP-92): 3680 nM
- remaining at 2 h, 100 µM [16]: 85.7%
- GI50 (RPMI-8226): 514 nM
- GI50 (SK-MEL-28): 2830 nM
- pIC50 (Histone deacetylase 8): < 5.00
- GI50 (U-251): 343 nM
- GI50 (786-0): 466 nM
- GI50 (NCI-H322M): 1010 nM
- GI50 (A498): 623 nM
- GI50 (OVCAR-3): 202 nM
- GI50 (MDA-MB-468): 432 nM
